Test results from ChEMBL document CHEMBL5715954, “Silencing c-Myc translation as a therapeutic strategy through targeting PI3Kδ and CK1ε in hematological malignancies” (Blood, 2017).

Tests used:
Design in all cases: scale not given: the % may be the effect or the level left
[1] = target: Proto-oncogene tyrosine-protein kinase Src (Homo sapiens) (UniProt P12931); test: Inhibition of human c-Src assessed as enzyme activity at 1 uM using poly[Glu:Tyr] (4:1) as substrate preincubated for 20 mins followed by [gamma-33P]-ATP addition and measured after 120 mins by radiometric Hot-SpotSM Kinase assay relative to control
[2] = target: T1, Myotonin-protein kinase (Homo sapiens) (UniProt Q09013); test: Inhibition of human DMPK assessed as enzyme activity at 1 uM using KKRNRRLSVA as substrate preincubated for 20 mins followed by [gamma-33P]-ATP addition and measured after 120 mins by radiometric Hot-SpotSM Kinase assay relative to control
T1 sequence (whole entry): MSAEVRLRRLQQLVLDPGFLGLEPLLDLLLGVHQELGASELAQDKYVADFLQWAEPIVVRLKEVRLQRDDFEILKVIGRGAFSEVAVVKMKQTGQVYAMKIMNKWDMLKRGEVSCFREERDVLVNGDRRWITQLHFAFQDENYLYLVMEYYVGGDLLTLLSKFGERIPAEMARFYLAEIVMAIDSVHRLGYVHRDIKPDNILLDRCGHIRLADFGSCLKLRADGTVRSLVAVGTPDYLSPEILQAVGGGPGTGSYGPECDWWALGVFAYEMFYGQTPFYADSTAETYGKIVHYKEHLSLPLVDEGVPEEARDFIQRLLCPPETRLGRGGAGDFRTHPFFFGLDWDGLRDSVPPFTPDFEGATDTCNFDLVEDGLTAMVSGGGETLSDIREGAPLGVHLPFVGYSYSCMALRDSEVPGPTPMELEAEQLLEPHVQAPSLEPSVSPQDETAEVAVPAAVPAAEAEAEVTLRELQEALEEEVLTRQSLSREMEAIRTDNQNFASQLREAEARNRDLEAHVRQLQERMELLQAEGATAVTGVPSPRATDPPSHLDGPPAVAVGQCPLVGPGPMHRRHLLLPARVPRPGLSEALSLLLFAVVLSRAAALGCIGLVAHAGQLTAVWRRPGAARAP

[3] = target: Leucine-rich repeat serine/threonine-protein kinase 2 (Homo sapiens) (UniProt Q5S007); test: Inhibition of human LRRK2 assessed as enzyme activity at 1 uM using RLGRDKYKTLRQIRQ as substrate preincubated for 20 mins followed by [gamma-33P]-ATP addition and measured after 120 mins by radiometric Hot-SpotSM Kinase assay relative to control
[4] = target: Ribosomal protein S6 kinase alpha-5 (Homo sapiens) (UniProt O75582); test: Inhibition of human MSK1 assessed as enzyme activity at 1 uM using GRPRTSSFAEG as substrate preincubated for 20 mins followed by [gamma-33P]-ATP addition and measured after 120 mins by radiometric Hot-SpotSM Kinase assay relative to control
[5] = target: T2, Myosin light chain kinase family member 4 (Homo sapiens) (UniProt Q86YV6); test: Inhibition of human MYLK4 assessed as enzyme activity at 1 uM using KKRPQRRYSNVF as substrate preincubated for 20 mins followed by [gamma-33P]-ATP addition and measured after 120 mins by radiometric Hot-SpotSM Kinase assay relative to control
T2 sequence (whole entry): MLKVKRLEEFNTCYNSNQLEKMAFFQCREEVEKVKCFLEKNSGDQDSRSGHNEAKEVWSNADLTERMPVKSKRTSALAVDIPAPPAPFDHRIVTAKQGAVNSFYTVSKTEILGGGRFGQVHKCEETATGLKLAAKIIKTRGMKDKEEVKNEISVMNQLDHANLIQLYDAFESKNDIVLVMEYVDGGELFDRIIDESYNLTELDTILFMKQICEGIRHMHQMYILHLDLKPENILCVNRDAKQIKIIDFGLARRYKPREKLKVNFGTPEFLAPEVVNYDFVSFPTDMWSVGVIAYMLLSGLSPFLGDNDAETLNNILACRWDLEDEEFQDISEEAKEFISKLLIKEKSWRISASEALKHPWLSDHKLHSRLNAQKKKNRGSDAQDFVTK

[6] = target: Serine/threonine-protein kinase OSR1 (Homo sapiens) (UniProt O95747); test: Inhibition of human OSR1 assessed as enzyme activity at 1 uM using RRHYYYDTHTNTYYLRTFGHNTRR as substrate preincubated for 20 mins followed by [gamma-33P]-ATP addition and measured after 120 mins by radiometric Hot-SpotSM Kinase assay relative to control
[7] = target: Serine/threonine-protein kinase pim-2 (Homo sapiens) (UniProt Q9P1W9); test: Inhibition of human PIM2 assessed as enzyme activity at 1 uM using RSRHSSYPAGT as substrate preincubated for 20 mins followed by [gamma-33P]-ATP addition and measured after 120 mins by radiometric Hot-SpotSM Kinase assay relative to control
[8] = target: Serine/threonine-protein kinase 25 (Homo sapiens) (UniProt O00506); test: Inhibition of human STK25 assessed as enzyme activity at 1 uM using myelin basic protein as substrate preincubated for 20 mins followed by [gamma-33P]-ATP addition and measured after 120 mins by radiometric Hot-SpotSM Kinase assay relative to control
[9] = target: TGF-beta receptor type-2 (Homo sapiens) (UniProt P37173); test: Inhibition of human TGFBR2 assessed as enzyme activity at 1 uM using myelin basic protein as substrate preincubated for 20 mins followed by [gamma-33P]-ATP addition and measured after 120 mins by radiometric Hot-SpotSM Kinase assay relative to control
[10] = target: NT-3 growth factor receptor (Homo sapiens) (UniProt Q16288); test: Inhibition of human TRKC assessed as enzyme activity at 1 uM using poly[Glu:Tyr] (4:1) as substrate preincubated for 20 mins followed by [gamma-33P]-ATP addition and measured after 120 mins by radiometric Hot-SpotSM Kinase assay relative to control
[11] = target: T3, Serine/threonine-protein kinase ULK3 (Homo sapiens) (UniProt Q6PHR2); test: Inhibition of human ULK3 assessed as enzyme activity at 1 uM using myelin basic protein as substrate preincubated for 20 mins followed by [gamma-33P]-ATP addition and measured after 120 mins by radiometric Hot-SpotSM Kinase assay relative to control
T3 sequence (whole entry): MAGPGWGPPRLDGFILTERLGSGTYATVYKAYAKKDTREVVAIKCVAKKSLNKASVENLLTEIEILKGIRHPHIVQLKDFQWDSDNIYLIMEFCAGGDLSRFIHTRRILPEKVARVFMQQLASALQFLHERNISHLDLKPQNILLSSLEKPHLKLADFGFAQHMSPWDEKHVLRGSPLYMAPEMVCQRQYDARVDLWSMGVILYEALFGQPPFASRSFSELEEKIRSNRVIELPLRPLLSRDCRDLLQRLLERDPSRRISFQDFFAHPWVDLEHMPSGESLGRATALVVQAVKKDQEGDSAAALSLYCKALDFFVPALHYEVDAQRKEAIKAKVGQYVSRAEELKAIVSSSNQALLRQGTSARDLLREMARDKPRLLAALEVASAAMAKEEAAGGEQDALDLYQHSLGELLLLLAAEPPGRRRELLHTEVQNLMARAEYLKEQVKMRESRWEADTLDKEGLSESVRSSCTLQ

Row | Structure (SMILES) | Activity [1] [%] | Activity [2] [%] | Activity [3] [%] | Activity [4] [%] | Activity [5] [%] | Activity [6] [%] | Activity [7] [%] | Activity [8] [%] | Activity [9] [%] | Activity [10] [%] | Activity [11] [%]
1 | CC[C@H](Nc1ncnc2[nH]cnc12)c1nc2cccc(F)c2c(=O)n1-c1ccccc1 | 85.2 | 104 | 99.7 | 94.6 | 90.9 | 93.2 | 100 | 102 | 110 | 89.6 | 89.3
2 | CC(C)Oc1ccc(-c2nn([C@@H](C)c3oc4ccc(F)cc4c(=O)c3-c3cccc(F)c3)c3ncnc(N)c23)cc1F [UMBRALISIB] | 87.6 | 100 | 107 | 96.8 | 92.3 | 95.5 | 101 | 103 | 97.4 | 88.7 | 93.8
3 | C[C@H](Nc1ncnc2nc[nH]c12)c1cc2cccc(Cl)c2c(=O)n1-c1ccccc1 | 86.7 | 106 | 111 | 96.3 | 93 | 97.1 | 98.1 | 97 | 114 | 91 | 93.2
